Assays:
Experiment in all cases: relative viability (nuclei count vs DMSO), 5 days (fraction); higher = more cells survive
A-427 = tested on: A-427
Method in brief: (§1)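 Each reported value is a median over duplicate plates. It expresses relative viability: treated-well nuclei count divided by vehicle-well nuclei count. Lung cancer cell lines in 1536-well plates were dosed by pin tool a day after seeding, alone with one drug or with a fixed anchor-drug dose plus five library-drug doses (not always all listed) in √10 steps, and nuclei were counted after 5 days.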

CAL-12T = tested on: CAL-12T
Method in brief: as §1

COR-L 105 = tested on: COR-L 105
Method in brief: as §1

COR-L23 = tested on: COR-L23
Method in brief: as §1

EPLC-272H = tested on: EPLC-272H
Method in brief: as §1

HOP-62 = tested on: HOP-62
Method in brief: as §1

LCLC-103H = tested on: LCLC-103H
Method in brief: as §1

LXF-289 = tested on: LXF-289
Method in brief: as §1

NCI-H1395 = tested on: NCI-H1395
Method in brief: as §1

NCI-H1563 = tested on: NCI-H1563
Method in brief: as §1

NCI-H1651 = tested on: NCI-H1651
Method in brief: as §1

NCI-H1975 = tested on: NCI-H1975
Method in brief: as §1

NCI-H1993 = tested on: NCI-H1993
Method in brief: as §1

NCI-H2023 = tested on: NCI-H2023
Method in brief: as §1

NCI-H2085 = tested on: NCI-H2085
Method in brief: as §1

NCI-H2087 = tested on: NCI-H2087
Method in brief: as §1

NCI-H2170 = tested on: NCI-H2170
Method in brief: as §1

NCI-H2342 = tested on: NCI-H2342
Method in brief: as §1

NCI-H3122 = tested on: NCI-H3122
Method in brief: as §1

NCI-H596 = tested on: NCI-H596
Method in brief: as §1

NCI-H647 = tested on: NCI-H647
Method in brief: as §1

NCI-H650 = tested on: NCI-H650
Method in brief: as §1

PC-14 = tested on: PC-14
Method in brief: as §1

RERF-LC-KJ = tested on: RERF-LC-KJ
Method in brief: as §1

SK-MES-1 = tested on: SK-MES-1
Method in brief: as §1

## CCCCCCCCCCCC1=C(O)C(=O)C=C(O)C1=O [Embelin] + COc1cccc2cc(-c3nc([C@H]4CC[C@H](C(=O)O)CC4)n4ncnc(N)c34)[nH]c12 [OSI-027] (partner 0.5 µM)
A-427; first compound 0.08 µM
  relative viability: 0.424
A-427; first compound 0.8 µM
  relative viability: 0.495
A-427; first compound 2.53 µM
  relative viability: 0.439
A-427; first compound 8 µM
  relative viability: 0.497
CAL-12T; first compound 0.08 µM
  relative viability: 0.538
CAL-12T; first compound 0.8 µM
  relative viability: 0.817
CAL-12T; first compound 2.53 µM
  relative viability: 0.513
CAL-12T; first compound 8 µM
  relative viability: 0.665
COR-L 105; first compound 0.08 µM
  relative viability: 0.693
COR-L 105; first compound 0.8 µM
  relative viability: 0.836
COR-L 105; first compound 2.53 µM
  relative viability: 0.602
COR-L 105; first compound 8 µM
  relative viability: 0.621
COR-L23; first compound 0.08 µM
  relative viability: 0.756
COR-L23; first compound 0.8 µM
  relative viability: 0.92
COR-L23; first compound 2.53 µM
  relative viability: 0.923
COR-L23; first compound 8 µM
  relative viability: 0.921
EPLC-272H; first compound 0.08 µM
  relative viability: 0.256
EPLC-272H; first compound 0.8 µM
  relative viability: 0.319
EPLC-272H; first compound 2.53 µM
  relative viability: 0.309
EPLC-272H; first compound 8 µM
  relative viability: 0.255
HOP-62; first compound 0.08 µM
  relative viability: 0.88
HOP-62; first compound 0.8 µM
  relative viability: 0.922
HOP-62; first compound 2.53 µM
  relative viability: 0.931
HOP-62; first compound 8 µM
  relative viability: 0.812
LCLC-103H; first compound 0.08 µM
  relative viability: 0.467
LCLC-103H; first compound 0.8 µM
  relative viability: 0.492
LCLC-103H; first compound 2.53 µM
  relative viability: 0.495
LCLC-103H; first compound 8 µM
  relative viability: 0.423
LXF-289; first compound 0.08 µM
  relative viability: 0.796
LXF-289; first compound 0.8 µM
  relative viability: 0.952
LXF-289; first compound 2.53 µM
  relative viability: 0.801
LXF-289; first compound 8 µM
  relative viability: 0.873
NCI-H1395; first compound 0.08 µM
  relative viability: 0.657
NCI-H1395; first compound 0.8 µM
  relative viability: 0.702
NCI-H1395; first compound 2.53 µM
  relative viability: 0.615
NCI-H1395; first compound 8 µM
  relative viability: 0.549
NCI-H1563; first compound 0.08 µM
  relative viability: 0.65
NCI-H1563; first compound 0.8 µM
  relative viability: 0.772
NCI-H1563; first compound 2.53 µM
  relative viability: 0.71
NCI-H1563; first compound 8 µM
  relative viability: 0.758
NCI-H1651; first compound 0.08 µM
  relative viability: 0.749
NCI-H1651; first compound 0.8 µM
  relative viability: 0.677
NCI-H1651; first compound 2.53 µM
  relative viability: 0.801
NCI-H1651; first compound 8 µM
  relative viability: 0.776
NCI-H1975; first compound 0.08 µM
  relative viability: 0.728
NCI-H1975; first compound 0.8 µM
  relative viability: 0.817
NCI-H1975; first compound 2.53 µM
  relative viability: 0.88
NCI-H1975; first compound 8 µM
  relative viability: 0.768
NCI-H1993; first compound 0.08 µM
  relative viability: 0.577
NCI-H1993; first compound 0.8 µM
  relative viability: 0.556
NCI-H1993; first compound 2.53 µM
  relative viability: 0.606
NCI-H1993; first compound 8 µM
  relative viability: 0.547
NCI-H2023; first compound 0.08 µM
  relative viability: 0.377
NCI-H2023; first compound 0.8 µM
  relative viability: 0.468
NCI-H2023; first compound 2.53 µM
  relative viability: 0.385
NCI-H2023; first compound 8 µM
  relative viability: 0.398
NCI-H2085; first compound 0.08 µM
  relative viability: 0.743
NCI-H2085; first compound 0.8 µM
  relative viability: 0.84
NCI-H2085; first compound 2.53 µM
  relative viability: 0.699
NCI-H2085; first compound 8 µM
  relative viability: 0.646
NCI-H2087; first compound 0.08 µM
  relative viability: 0.5
NCI-H2087; first compound 0.8 µM
  relative viability: 0.543
NCI-H2087; first compound 2.53 µM
  relative viability: 0.656
NCI-H2087; first compound 8 µM
  relative viability: 0.628
NCI-H2170; first compound 0.08 µM
  relative viability: 0.796
NCI-H2170; first compound 0.8 µM
  relative viability: 0.733
NCI-H2170; first compound 2.53 µM
  relative viability: 0.753
NCI-H2170; first compound 8 µM
  relative viability: 0.737
NCI-H2342; first compound 0.08 µM
  relative viability: 0.666
NCI-H2342; first compound 0.8 µM
  relative viability: 0.59
NCI-H2342; first compound 2.53 µM
  relative viability: 0.676
NCI-H2342; first compound 8 µM
  relative viability: 0.68
NCI-H3122; first compound 0.08 µM
  relative viability: 0.857
NCI-H3122; first compound 0.8 µM
  relative viability: 1.15
NCI-H3122; first compound 2.53 µM
  relative viability: 1.31
NCI-H3122; first compound 8 µM
  relative viability: 0.875
NCI-H596; first compound 0.08 µM
  relative viability: 0.773
NCI-H596; first compound 0.8 µM
  relative viability: 0.854
NCI-H596; first compound 2.53 µM
  relative viability: 0.771
NCI-H596; first compound 8 µM
  relative viability: 0.454
NCI-H647; first compound 0.08 µM
  relative viability: 0.684
NCI-H647; first compound 0.8 µM
  relative viability: 0.72
NCI-H647; first compound 2.53 µM
  relative viability: 0.963
NCI-H647; first compound 8 µM
  relative viability: 0.649
NCI-H650; first compound 0.08 µM
  relative viability: 0.421
NCI-H650; first compound 0.8 µM
  relative viability: 0.623
NCI-H650; first compound 2.53 µM
  relative viability: 0.388
NCI-H650; first compound 8 µM
  relative viability: 0.549
PC-14; first compound 0.08 µM
  relative viability: 0.81
PC-14; first compound 0.8 µM
  relative viability: 1.13
PC-14; first compound 2.53 µM
  relative viability: 1.24
PC-14; first compound 8 µM
  relative viability: 0.848
RERF-LC-KJ; first compound 0.08 µM
  relative viability: 0.585
RERF-LC-KJ; first compound 0.8 µM
  relative viability: 0.529
RERF-LC-KJ; first compound 2.53 µM
  relative viability: 0.545
RERF-LC-KJ; first compound 8 µM
  relative viability: 0.494
SK-MES-1; first compound 0.08 µM
  relative viability: 0.648
SK-MES-1; first compound 0.8 µM
  relative viability: 0.66
SK-MES-1; first compound 2.53 µM
  relative viability: 0.572
SK-MES-1; first compound 8 µM
  relative viability: 0.521

Source: the supplement of paper PMC10307832
